Assay type in all cases: ADME, organism-based
The subject of series [1] is Homo sapiens. The series is described as follows: Pharmacokinetic parameters for Mycophenolic acid following single oral administration of Mycophenolate Mofetil to subjects with different health status. Set-up: dose 1 g, route oral. To be noted: in vivo, dosed compound id 90, dosed compound name MYCOPHENOLATE MOFETIL, gender male and female, regimen Single dose, tissue Plasma.

In series [2] the test system is Homo sapiens. In words: Apparent Volume of distribution (Vd) of […] following oral and intravenous (IV) administration of Mycophenolate Mofetil to 12 healthy volunteers. To be noted: in vivo, dosed compound id 90, dosed compound name MYCOPHENOLATE MOFETIL, gender male and female, tissue Plasma.
In series [3] the test system is Homo sapiens. The series is described as follows: Pharmacokinetic parameters for Mycophenolic acid following multiple administration of Mycophenolate Mofetil to hepatic, cardiac and renal transplant patients, at least 5 days after transplant. Set-up: dose 600 mg/m2, dose 1.5 g, dose 1 g, route oral, route iv. As to conditions: in vivo, 120 h, dosed compound id 90, dosed compound name MYCOPHENOLATE MOFETIL, gender male and female, regimen Twice daily, tissue Plasma.

From ChEMBL document CHEMBL3832071, “DailyMed|setid=56428c8f-8a4b-4cbf-93f1-28d8b5cfb51a | MYCOPHENOLATE MOFETIL- mycophenolate mofetil capsule|MYCOPHENOLATE MOFETIL- mycophenolate mofetil tablet, film coated | Cadila Healthcare Limited” come the findings set out here.

Values joined by “and” are separate entries in the source; they are usually repeats but may differ in a detail not shown here. Equal values may be shown once.

A word on the Tmax: it is the time at which the peak concentration occurs. As a reminder, the Cmax is the maximum level reached in the sampled fluid or tissue. Take `COc1c(C)c2c(c(O)c1C/C=C(\C)CCC(=O)O)C(=O)OC2` [MYCOPHENOLIC ACID]: the time of peak concentration (Tmax) is 0.8 h and 0.75 h and 0.63 h and 1 h and 0.85 h in series [1] (dose 1 g, route oral); 1.58 h and 1.5 h in series [3] (iv, dose 1 g); 1.33 h and 1.31 h in series [3] (po, dose 1 g); 1.15 hr [middle of 5 runs] in series [3] (po, dose 1.5 g). For the same compound, the “AUC(0-48)” value in series [1] came out at 29800 ng·h/mL. For the same compound, the “AUC(0-96)” value in series [1] is 45000 ng·h/mL and 59900 ng·h/mL and 78600 ng·h/mL. In series [1], the peak concentration (Cmax) is 24500 ng/mL and 25300 ng/mL and 16300 ng/mL and 22400 ng/mL. In addition, the “Total AUC” value in series [1] came out at 63900 ng·h/mL. Also, the Vd in series [2] (iv) was 3.6 L/kg; in series [2] (po), 4 L/kg. The entries for the “AUC(0-12)” value in series [3] (sampling time1 4 hours) and in series [3] were 54.1 µg·h/mL and 43.3 mcg.hr/mL [middle of 21 runs], respectively.
